From ChEMBL document CHEMBL5465560, “Selectivity Literature for EUbOPEN Chemogenomic Library” (2024)

Legend:
[1] = target: Bone morphogenetic protein receptor type-1B (Homo sapiens, UniProt O00238); experiment: Selectivity interaction (KinomeScan (DiscoverX)) EUB0000229b BMPR1B; conditions: at 10 µM
[2] = target: Rho-associated protein kinase 2 (Homo sapiens, UniProt O75116); experiment: Selectivity interaction (KinomeScan (DiscoverX)) EUB0000595a ROCK2; conditions: at 10 µM
[3] = target: Hepatocyte growth factor receptor (Homo sapiens, UniProt P08581); experiment: (§1) Selectivity interaction (Kinase panel (Z-LYTE Assay)) EUB0001632a MET; conditions: at 10 µM
[4] = tested on: Hepatocyte growth factor receptor (Homo sapiens), P08581 [M1250T]; experiment: as §1; conditions: at 10 µM
Sequence of Hepatocyte growth factor receptor (Homo sapiens), P08581 [M1250T] (P08581 whole entry M1250T): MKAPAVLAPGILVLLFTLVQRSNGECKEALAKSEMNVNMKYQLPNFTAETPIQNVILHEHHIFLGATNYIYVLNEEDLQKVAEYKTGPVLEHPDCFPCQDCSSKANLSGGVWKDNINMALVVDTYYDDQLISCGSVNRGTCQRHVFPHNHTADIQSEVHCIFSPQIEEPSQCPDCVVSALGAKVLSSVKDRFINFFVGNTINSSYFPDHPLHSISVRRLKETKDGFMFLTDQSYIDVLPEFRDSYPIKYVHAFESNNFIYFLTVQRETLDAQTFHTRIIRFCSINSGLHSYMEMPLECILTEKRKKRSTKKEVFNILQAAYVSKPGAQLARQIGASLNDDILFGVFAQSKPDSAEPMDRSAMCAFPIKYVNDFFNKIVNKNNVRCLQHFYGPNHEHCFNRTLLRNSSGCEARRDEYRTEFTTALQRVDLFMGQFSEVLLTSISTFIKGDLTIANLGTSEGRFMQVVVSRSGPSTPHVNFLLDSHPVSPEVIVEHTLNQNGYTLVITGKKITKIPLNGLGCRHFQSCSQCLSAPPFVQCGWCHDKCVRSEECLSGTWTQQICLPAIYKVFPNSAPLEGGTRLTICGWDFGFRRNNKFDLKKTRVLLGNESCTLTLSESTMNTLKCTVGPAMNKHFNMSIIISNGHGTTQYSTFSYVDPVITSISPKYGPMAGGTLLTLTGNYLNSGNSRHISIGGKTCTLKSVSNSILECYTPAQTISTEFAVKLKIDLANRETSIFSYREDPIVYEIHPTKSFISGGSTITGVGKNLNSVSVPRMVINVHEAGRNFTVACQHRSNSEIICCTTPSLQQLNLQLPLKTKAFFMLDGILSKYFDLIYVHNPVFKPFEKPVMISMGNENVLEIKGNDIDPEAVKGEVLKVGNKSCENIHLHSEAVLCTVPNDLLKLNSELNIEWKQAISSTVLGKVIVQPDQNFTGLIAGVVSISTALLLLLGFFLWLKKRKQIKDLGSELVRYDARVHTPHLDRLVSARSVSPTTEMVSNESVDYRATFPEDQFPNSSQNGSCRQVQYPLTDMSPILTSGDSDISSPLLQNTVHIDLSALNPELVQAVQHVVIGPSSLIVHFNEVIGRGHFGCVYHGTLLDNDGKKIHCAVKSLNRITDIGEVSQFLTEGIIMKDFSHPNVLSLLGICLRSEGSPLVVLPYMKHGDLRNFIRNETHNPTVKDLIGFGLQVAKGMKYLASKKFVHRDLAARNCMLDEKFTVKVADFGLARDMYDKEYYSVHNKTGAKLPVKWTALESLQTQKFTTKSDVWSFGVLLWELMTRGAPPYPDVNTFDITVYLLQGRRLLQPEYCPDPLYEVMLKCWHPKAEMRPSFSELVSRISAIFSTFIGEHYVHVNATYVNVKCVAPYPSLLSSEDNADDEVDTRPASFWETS

[5] = target: Mitogen-activated protein kinase kinase kinase 21 (Homo sapiens) (UniProt Q5TCX8); experiment: Selectivity interaction (LanthaScreen Eu Kinase Binding Assay) EUB0001632a MAP3K21; conditions: at 10 µM
Ephrin type-A receptor 4 = Ephrin type-A receptor 4 (Homo sapiens, UniProt P54764); experiment: Selectivity interaction (Kinase panel (33PanQinase(R) Activity Assay)) EUB0000877a EPHA4
[6] = target: T1, Mast/stem cell growth factor receptor Kit (Homo sapiens, UniProt P10721); experiment: Selectivity interaction (KinomeScan (DiscoverX)) EUB0001619a KIT; conditions: at 1 µM
T1 sequence (P10721 whole entry): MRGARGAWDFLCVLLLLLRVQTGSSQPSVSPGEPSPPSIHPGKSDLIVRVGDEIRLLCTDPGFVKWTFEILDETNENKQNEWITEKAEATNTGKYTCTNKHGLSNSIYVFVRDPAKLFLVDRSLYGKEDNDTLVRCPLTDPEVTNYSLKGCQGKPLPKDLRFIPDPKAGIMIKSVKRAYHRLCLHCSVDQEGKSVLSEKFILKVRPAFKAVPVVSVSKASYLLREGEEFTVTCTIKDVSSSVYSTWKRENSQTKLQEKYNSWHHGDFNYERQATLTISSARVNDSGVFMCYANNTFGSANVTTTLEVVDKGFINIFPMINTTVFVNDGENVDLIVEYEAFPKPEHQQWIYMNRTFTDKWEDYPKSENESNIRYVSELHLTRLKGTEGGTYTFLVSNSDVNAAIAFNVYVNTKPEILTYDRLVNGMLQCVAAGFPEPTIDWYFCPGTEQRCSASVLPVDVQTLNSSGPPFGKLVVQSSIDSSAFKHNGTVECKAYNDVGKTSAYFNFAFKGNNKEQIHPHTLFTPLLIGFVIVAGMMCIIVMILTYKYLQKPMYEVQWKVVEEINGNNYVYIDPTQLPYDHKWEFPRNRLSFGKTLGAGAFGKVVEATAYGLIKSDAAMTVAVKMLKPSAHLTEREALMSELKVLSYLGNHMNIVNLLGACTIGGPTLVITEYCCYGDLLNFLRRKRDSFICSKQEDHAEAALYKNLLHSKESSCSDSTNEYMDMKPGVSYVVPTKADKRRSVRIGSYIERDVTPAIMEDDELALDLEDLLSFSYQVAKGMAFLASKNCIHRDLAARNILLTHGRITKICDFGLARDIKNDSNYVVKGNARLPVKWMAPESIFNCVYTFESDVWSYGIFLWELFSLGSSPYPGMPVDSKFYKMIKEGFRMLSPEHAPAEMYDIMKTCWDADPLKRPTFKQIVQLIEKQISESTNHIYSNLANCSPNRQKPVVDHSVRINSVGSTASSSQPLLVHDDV

[7] = target: 5'-AMP-activated protein kinase catalytic subunit alpha-2 (Homo sapiens) (UniProt P54646); experiment: Selectivity interaction (ActivX KiNativ screen (ex vivo kinase selectivity in human PBMCs)) EUB0001619a PRKAA2; format: cell-based; conditions: PBMC, at 1 µM
Sequence of 5'-AMP-activated protein kinase catalytic subunit alpha-2 (Homo sapiens) (P54646 whole entry, looked up): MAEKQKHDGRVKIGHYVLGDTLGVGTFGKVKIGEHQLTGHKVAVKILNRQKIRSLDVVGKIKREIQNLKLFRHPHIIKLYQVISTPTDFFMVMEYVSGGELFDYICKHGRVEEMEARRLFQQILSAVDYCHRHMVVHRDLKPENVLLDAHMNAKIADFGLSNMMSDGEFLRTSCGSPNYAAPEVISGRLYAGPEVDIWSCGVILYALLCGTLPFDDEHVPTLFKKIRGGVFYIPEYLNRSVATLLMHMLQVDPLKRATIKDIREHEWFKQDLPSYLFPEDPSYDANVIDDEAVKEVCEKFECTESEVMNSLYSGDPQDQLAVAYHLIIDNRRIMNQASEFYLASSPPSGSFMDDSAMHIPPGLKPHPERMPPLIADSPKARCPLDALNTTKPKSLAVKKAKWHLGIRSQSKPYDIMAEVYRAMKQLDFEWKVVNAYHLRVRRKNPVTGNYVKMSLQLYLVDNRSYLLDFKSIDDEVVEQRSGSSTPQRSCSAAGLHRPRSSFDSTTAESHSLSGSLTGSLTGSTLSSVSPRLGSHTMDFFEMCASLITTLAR

[8] = target: Interleukin-1 receptor-associated kinase 1 (Homo sapiens) (UniProt P51617); experiment: Selectivity interaction (KinomeScan (DiscoverX)) EUB0001619a IRAK1; conditions: at 1 µM
Sequence of Interleukin-1 receptor-associated kinase 1 (Homo sapiens) (P51617 whole entry, looked up): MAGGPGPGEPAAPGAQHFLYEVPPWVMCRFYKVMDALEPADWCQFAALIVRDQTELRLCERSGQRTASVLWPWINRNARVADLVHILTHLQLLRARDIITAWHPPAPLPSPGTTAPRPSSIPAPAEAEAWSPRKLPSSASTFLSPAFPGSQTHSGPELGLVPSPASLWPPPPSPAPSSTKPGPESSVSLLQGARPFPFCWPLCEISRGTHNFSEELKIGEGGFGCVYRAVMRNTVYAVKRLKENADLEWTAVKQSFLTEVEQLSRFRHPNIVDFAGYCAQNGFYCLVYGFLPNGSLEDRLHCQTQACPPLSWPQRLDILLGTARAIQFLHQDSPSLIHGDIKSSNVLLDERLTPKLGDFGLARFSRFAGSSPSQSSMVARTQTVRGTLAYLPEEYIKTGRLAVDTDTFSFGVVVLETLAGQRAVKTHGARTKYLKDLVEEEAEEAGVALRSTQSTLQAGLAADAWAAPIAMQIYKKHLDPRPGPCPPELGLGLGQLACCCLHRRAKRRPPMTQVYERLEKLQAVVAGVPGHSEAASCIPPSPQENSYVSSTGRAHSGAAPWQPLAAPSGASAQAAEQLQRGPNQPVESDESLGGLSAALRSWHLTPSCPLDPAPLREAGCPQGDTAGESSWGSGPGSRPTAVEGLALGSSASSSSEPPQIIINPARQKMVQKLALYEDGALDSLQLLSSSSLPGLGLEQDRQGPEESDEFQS

[9] = target: T2, Mitogen-activated protein kinase kinase kinase 6 (Homo sapiens) (UniProt O95382); experiment: Selectivity interaction (KinomeScan (DiscoverX)) EUB0000607a MAP3K6; conditions: at 10 µM
T2 sequence (whole entry): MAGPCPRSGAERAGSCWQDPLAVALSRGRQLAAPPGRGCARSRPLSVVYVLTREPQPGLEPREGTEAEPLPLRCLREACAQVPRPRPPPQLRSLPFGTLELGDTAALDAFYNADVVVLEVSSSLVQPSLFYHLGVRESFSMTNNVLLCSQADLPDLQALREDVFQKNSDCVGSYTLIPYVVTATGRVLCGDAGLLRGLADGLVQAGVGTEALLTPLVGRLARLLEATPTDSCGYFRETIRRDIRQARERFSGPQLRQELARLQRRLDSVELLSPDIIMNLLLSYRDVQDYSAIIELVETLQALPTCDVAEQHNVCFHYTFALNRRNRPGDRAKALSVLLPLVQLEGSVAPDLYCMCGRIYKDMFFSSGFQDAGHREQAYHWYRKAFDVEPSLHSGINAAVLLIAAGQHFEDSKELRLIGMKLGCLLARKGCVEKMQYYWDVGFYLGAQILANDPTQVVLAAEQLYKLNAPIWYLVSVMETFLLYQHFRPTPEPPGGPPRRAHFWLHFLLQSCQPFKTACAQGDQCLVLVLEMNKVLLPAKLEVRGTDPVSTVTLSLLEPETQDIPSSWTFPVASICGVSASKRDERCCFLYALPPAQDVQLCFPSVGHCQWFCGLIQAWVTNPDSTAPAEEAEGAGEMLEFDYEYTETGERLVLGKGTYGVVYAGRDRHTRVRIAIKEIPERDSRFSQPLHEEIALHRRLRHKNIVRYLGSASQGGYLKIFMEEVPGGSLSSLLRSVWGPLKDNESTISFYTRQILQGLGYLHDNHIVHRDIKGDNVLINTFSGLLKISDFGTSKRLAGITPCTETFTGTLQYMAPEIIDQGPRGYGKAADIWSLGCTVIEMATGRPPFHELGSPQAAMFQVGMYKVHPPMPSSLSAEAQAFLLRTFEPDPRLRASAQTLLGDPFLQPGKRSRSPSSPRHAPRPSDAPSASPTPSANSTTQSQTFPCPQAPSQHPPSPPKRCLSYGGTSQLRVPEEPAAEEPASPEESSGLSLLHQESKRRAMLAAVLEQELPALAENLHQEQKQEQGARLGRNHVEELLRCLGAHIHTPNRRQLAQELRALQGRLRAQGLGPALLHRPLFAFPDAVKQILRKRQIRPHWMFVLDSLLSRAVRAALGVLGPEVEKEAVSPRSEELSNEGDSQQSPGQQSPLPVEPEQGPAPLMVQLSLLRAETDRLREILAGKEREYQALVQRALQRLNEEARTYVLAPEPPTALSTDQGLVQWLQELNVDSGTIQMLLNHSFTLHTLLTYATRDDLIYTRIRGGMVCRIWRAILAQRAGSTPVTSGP

[10] = target: T3, Serine/threonine-protein kinase BRSK2 (Homo sapiens) (UniProt Q8IWQ3); experiment: Selectivity interaction (KinomeScan (DiscoverX)) EUB0000607a BRSK2; conditions: at 10 µM
T3 sequence (whole entry): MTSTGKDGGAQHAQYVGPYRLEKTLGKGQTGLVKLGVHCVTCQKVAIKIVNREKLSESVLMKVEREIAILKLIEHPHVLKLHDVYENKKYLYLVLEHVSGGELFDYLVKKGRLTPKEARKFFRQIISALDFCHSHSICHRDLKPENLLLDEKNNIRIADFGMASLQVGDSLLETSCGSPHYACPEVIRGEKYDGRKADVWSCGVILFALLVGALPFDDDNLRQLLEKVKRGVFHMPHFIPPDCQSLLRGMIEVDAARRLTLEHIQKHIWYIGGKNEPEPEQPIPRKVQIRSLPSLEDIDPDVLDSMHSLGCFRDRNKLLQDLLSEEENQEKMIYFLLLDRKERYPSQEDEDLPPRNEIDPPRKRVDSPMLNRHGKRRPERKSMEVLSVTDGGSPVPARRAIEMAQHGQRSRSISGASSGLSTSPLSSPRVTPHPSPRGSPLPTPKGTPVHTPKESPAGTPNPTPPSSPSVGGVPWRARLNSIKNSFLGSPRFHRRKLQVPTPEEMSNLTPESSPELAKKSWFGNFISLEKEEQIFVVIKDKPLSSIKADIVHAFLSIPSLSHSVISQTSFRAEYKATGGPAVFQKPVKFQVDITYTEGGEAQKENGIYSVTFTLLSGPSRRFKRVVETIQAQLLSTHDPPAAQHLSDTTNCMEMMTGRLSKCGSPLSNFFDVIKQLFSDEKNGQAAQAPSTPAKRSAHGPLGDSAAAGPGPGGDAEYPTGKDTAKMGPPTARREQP

[11] = tested on: Mast/stem cell growth factor receptor Kit (Homo sapiens), P10721 [D816V]; experiment: (§2) Selectivity interaction (KinomeScan (DiscoverX)) EUB0000618a KIT; conditions: at 10 µM
[12] = tested on: Mast/stem cell growth factor receptor Kit (Homo sapiens), P10721 [V559D,V654A]; experiment: as §2; conditions: at 10 µM
Sequence of Mast/stem cell growth factor receptor Kit (Homo sapiens), P10721 [V559D,V654A] (P10721 whole entry V559D/V654A): as the sequence (P10721 whole entry) above, with V559D, V654A counted along it

[13] = tested on: Mast/stem cell growth factor receptor Kit (Homo sapiens), P10721 [L576P]; experiment: as §2; conditions: at 10 µM
Sequence of Mast/stem cell growth factor receptor Kit (Homo sapiens), P10721 [L576P] (P10721 whole entry L576P): as the sequence (P10721 whole entry) above, with L576P counted along it

[14] = target: T1, Mast/stem cell growth factor receptor Kit; experiment: as §2; conditions: at 10 µM
[15] = tested on: Mast/stem cell growth factor receptor Kit (Homo sapiens), P10721 [A829P]; experiment: as §2; conditions: at 10 µM

Sequence of Rho-associated protein kinase 2 (O75116 whole entry, looked up): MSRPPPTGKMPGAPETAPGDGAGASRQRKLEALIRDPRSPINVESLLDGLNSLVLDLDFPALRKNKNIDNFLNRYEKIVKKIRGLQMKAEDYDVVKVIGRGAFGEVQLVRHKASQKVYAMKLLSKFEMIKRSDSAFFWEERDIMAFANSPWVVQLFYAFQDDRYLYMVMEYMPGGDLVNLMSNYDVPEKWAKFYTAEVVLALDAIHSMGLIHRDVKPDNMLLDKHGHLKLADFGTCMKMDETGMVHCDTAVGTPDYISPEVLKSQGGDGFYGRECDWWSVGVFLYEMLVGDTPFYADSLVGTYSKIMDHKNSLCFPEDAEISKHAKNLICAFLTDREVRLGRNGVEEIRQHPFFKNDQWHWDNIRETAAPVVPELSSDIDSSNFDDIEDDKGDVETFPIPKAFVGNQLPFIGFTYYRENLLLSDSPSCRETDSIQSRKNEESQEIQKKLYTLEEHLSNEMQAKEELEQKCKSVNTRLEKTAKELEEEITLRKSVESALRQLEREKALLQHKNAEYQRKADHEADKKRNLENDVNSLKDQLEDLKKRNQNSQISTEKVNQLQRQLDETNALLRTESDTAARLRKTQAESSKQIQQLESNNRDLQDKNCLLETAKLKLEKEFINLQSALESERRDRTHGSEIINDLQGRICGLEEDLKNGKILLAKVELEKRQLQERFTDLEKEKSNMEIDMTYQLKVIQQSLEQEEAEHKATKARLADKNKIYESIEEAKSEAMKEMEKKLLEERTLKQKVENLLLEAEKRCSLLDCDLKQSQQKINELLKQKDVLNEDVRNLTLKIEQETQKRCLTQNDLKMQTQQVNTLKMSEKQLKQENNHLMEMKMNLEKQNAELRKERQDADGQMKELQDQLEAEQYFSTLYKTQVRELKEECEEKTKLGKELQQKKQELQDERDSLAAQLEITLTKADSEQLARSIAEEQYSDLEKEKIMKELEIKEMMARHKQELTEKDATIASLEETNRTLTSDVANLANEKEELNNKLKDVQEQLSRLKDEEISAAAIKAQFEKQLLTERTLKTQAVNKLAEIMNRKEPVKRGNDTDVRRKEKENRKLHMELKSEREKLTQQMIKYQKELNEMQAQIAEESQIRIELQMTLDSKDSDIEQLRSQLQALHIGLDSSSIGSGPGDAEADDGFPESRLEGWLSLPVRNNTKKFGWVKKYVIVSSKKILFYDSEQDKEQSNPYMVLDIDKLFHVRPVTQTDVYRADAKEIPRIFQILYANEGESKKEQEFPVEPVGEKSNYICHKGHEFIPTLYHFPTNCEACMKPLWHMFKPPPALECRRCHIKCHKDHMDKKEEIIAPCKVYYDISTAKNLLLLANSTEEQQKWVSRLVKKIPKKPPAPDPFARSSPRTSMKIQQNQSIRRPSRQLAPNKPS

COc1cc(N(C)c2ccnc3ccc(C(F)(F)F)cc23)cc(OC)c1OC
% binding [1]: 73%

COCC(=O)NC/C=C/c1ccc2ncnc(Nc3ccc(Oc4ccc(C)nc4)c(C)c3)c2c1 [CP-724714]
% of control [2]: 100%

Cn1cc(-n2cnc3c(NCc4nc5cc(Cl)c(Cl)cc5[nH]4)nc(N4CCOCC4)nc32)cn1
% of control [3]: -11.4% | % of control [4]: 1.3% | % of inhibition [5]: -59.8%

CCC(=O)N1CC[C@H](Nc2ncnc3c2CN(c2cnc(OC)c(C(F)(F)F)c2)CC3)C1 [LENIOLISIB]
IC50 (Ephrin type-A receptor 4): > 10 µM

N#Cc1cccc(-c2c[nH]c3ncnc(N4CCOCC4)c23)c1
% of control [6]: 100% | % of inhibition [7]: 27% | % of control [8]: 23%

CNC(=O)Nc1ccc(-c2nc(N3CC4CCC(C3)O4)c3cnn(C4CCC5(CC4)OCCO5)c3n2)cc1
% of control [9]: 80% | % of control [10]: 100%

O[C@H]1CC[C@H](Nc2ncc3nc(Nc4c(F)cc(F)cc4F)n([C@H]4CCOC4)c3n2)CC1
% of control [11]: 84% | % of control [12]: 68% | % of control [13]: 95% | % of control [14]: 96% | % of control [15]: 77%
